Measurements from BindingDB's records for doi:10.1038/nchembio.2209 (Dana-Farber Cancer Institute, 2016).

Experiments:
[1] = molecular target: T1, Bromodomain testis-specific protein [21-137] (Homo sapiens, UniProt Q58F21); assay: AlphaScreen BRD Binding Assay; details: pH 7.5; 25 °C
T1 construct: 21-137

[2] = molecular target: T2, Bromodomain-containing protein 4 [44-168] (Human, UniProt O60885); assay: AlphaScreen BRD Binding Assay; details: pH 7.5; 25 °C
T2 construct: 44-168

[3] = molecular target: T2, Bromodomain-containing protein 4 [44-168]; assay: BROMOscan Assay
[4] = molecular target: T3, Bromodomain-containing protein 4 [44-168,333-460] (Homo sapiens, UniProt O60885); assay: BROMOscan Assay
T3 construct: 44-168,333-460

[5] = molecular target: T4, Bromodomain testis-specific protein [21-137,251-382] (Homo sapiens, UniProt Q58F21); assay: BROMOscan Assay
T4 construct: 21-137,251-382

[6] = molecular target: T5, Bromodomain-containing protein 3 [24-144] (Homo sapiens, UniProt Q15059); assay: Bromodomains Assay for DiscoveRx Gene Symbol
T5 construct: 24-144
T5 sequence (Q15059 24-144): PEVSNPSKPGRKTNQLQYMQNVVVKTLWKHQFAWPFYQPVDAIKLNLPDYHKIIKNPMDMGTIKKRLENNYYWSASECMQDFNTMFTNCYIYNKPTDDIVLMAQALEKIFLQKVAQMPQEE

[7] = molecular target: T6, Bromodomain-containing protein 3 [24-144,306-416] (Homo sapiens, UniProt Q15059); assay: Bromodomains Assay for DiscoveRx Gene Symbol
T6 construct: 24-144,306-416
T6 sequence (Q15059 as listed by the source): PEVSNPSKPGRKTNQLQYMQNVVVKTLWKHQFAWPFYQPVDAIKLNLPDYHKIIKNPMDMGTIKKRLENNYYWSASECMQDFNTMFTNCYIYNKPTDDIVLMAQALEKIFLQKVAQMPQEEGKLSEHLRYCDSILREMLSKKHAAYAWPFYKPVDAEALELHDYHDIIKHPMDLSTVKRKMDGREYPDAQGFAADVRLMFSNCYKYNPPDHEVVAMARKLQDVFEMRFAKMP

[8] = molecular target: T7, Bromodomain testis-specific protein [251-382] (Homo sapiens, UniProt Q58F21); assay: Bromodomains Assay for DiscoveRx Gene Symbol
T7 construct: 251-382

[9] = molecular target: T8, Bromodomain-containing protein 3 [306-416] (Homo sapiens, UniProt Q15059); assay: Bromodomains Assay for DiscoveRx Gene Symbol
T8 construct: 306-416
T8 sequence (Q15059 306-416): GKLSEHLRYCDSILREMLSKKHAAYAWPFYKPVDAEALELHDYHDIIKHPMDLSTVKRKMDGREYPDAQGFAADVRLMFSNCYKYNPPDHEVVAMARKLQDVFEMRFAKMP

[10] = molecular target: T4, Bromodomain testis-specific protein [21-137,251-382]; assay: Bromodomains Assay for DiscoveRx Gene Symbol
[11] = molecular target: T1, Bromodomain testis-specific protein [21-137]; assay: Bromodomains Assay for DiscoveRx Gene Symbol
[12] = molecular target: T9, Bromodomain-containing protein 2 [71-194,348-455] (Homo sapiens, UniProt P25440); assay: Bromodomains Assay for DiscoveRx Gene Symbol
T9 construct: 71-194,348-455
T9 sequence (P25440 as listed by the source): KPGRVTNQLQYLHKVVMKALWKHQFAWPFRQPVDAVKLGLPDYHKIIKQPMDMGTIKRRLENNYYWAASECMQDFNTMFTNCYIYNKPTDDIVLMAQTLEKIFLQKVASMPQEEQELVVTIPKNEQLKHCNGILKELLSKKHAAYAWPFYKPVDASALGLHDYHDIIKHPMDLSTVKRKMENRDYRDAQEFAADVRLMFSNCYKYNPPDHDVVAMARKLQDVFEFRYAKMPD

Compound	IC50 [1] [nM]	IC50 [2] [nM]	other results
COC(=O)CC1N=C(c2ccc(Cl)cc2)c2c(sc(C(=O)NCCNC(=O)Cn3c(=O)n([C@H](C)c4ccccn4)c4c5cc(OC)c(-c6c(C)noc6C)cc5ncc43)c2C)-n2c(C)nnc21 (stereo partly drawn) [2S+IBET-PEG0 (23)]	596	439	
COC(=O)CC1N=C(c2ccc(Cl)cc2)c2c(sc(C(=O)NCCOCCNC(=O)Cn3c(=O)n([C@H](C)c4ccccn4)c4c5cc(OC)c(-c6c(C)noc6C)cc5ncc43)c2C)-n2c(C)nnc21 (stereo partly drawn) [2S+IBET-PEG1 (24)]	40.3	18.1	
COC(=O)CC1N=C(c2ccc(Cl)cc2)c2c(sc(C(=O)NCCOCCOCCNC(=O)Cn3c(=O)n([C@H](C)c4ccccn4)c4c5cc(OC)c(-c6c(C)noc6C)cc5ncc43)c2C)-n2c(C)nnc21 (stereo partly drawn) [2S+IBET-PEG2 (25)]	23.2	5.8	
COC(=O)CC1N=C(c2ccc(Cl)cc2)c2c(sc(C(=O)NCCOCCOCCOCCNC(=O)Cn3c(=O)n([C@H](C)c4ccccn4)c4c5cc(OC)c(-c6c(C)noc6C)cc5ncc43)c2C)-n2c(C)nnc21 (stereo partly drawn) [2S+IBET-PEG3 (26)]	31.7	11.3	
COC(=O)CC1N=C(c2ccc(Cl)cc2)c2c(sc(C(=O)NCCOCCOCCOCCOCCNC(=O)Cn3c(=O)n([C@H](C)c4ccccn4)c4c5cc(OC)c(-c6c(C)noc6C)cc5ncc43)c2C)-n2c(C)nnc21 (stereo partly drawn) [2S+IBET-PEG4 (27)]	21.7	10.3	
COC(=O)CC1N=C(c2ccc(Cl)cc2)c2c(sc(C(=O)NCCOCCOCCOCCOCCOCCOCCOCCNC(=O)Cn3c(=O)n([C@H](C)c4ccccn4)c4c5cc(OC)c(-c6c(C)noc6C)cc5ncc43)c2C)-n2c(C)nnc21 (stereo partly drawn) [2S+IBET-PEG7 (28)]	13.2	17.4	
COc1cc2c(cc1-c1c(C)noc1C)ncc1c2n([C@H](C)c2ccccn2)c(=O)n1CC(=O)NCCNC(=O)C[C@@H]1N=C(c2ccc(Cl)cc2)c2c(sc(C)c2C)-n2c(C)nnc21 [6S+IBET-PEG0 (17)]	148	404	
COc1cc2c(cc1-c1c(C)noc1C)ncc1c2n([C@H](C)c2ccccn2)c(=O)n1CC(=O)NCCOCCNC(=O)C[C@@H]1N=C(c2ccc(Cl)cc2)c2c(sc(C)c2C)-n2c(C)nnc21 [6S+IBET-PEG1 (18)]	12.1	54	
COc1cc2c(cc1-c1c(C)noc1C)ncc1c2n([C@H](C)c2ccccn2)c(=O)n1CC(=O)NCCOCCOCCNC(=O)C[C@@H]1N=C(c2ccc(Cl)cc2)c2c(sc(C)c2C)-n2c(C)nnc21 [6S+IBET-PEG2 (19)]	10	58.6	Kd [3]: 0.062 nM
COc1cc2c(cc1-c1c(C)noc1C)ncc1c2n([C@H](C)c2ccccn2)c(=O)n1CC(=O)NCCOCCOCCOCCNC(=O)C[C@@H]1N=C(c2ccc(Cl)cc2)c2c(sc(C)c2C)-n2c(C)nnc21 [6S+IBET-PEG3 (20)]	5.78	27.4	
COc1cc2c(cc1-c1c(C)noc1C)ncc1c2n([C@H](C)c2ccccn2)c(=O)n1CC(=O)NCCOCCOCCOCCOCCNC(=O)C[C@@H]1N=C(c2ccc(Cl)cc2)c2c(sc(C)c2C)-n2c(C)nnc21 [6S+IBET-PEG4 (21)]	6.2	29.5	
COc1cc2c(cc1-c1c(C)noc1C)ncc1c2n([C@H](C)c2ccccn2)c(=O)n1CC(=O)NCCOCCOCCOCCOCCOCCOCCOCCNC(=O)C[C@@H]1N=C(c2ccc(Cl)cc2)c2c(sc(C)c2C)-n2c(C)nnc21 [6S+IBET-PEG7 (22)]	6.1	11.5	
COC(=O)C[C@@H]1N=C(c2ccc(Cl)cc2)c2c(sc(C(=O)NCCOCCNC(=O)c3sc4c(c3C)C(c3ccc(Cl)cc3)=N[C@H](CC(=O)OC)c3nnc(C)n3-4)c2C)-n2c(C)nnc21 [(2S+2S)-PEG1 (5)]		1.17	
COC(=O)C[C@@H]1N=C(c2ccc(Cl)cc2)c2c(sc(C(=O)NCCNC(=O)C[C@@H]3N=C(c4ccc(Cl)cc4)c4c(sc(C)c4C)-n4c(C)nnc43)c2C)-n2c(C)nnc21 [(6S+2S)-PEG0 (6)]	2.36	3.58	Kd [4]: 0.047 nM; Kd [3]: 0.034 nM
COC(=O)C[C@@H]1N=C(c2ccc(Cl)cc2)c2c(sc(C(=O)NCCOCCNC(=O)C[C@@H]3N=C(c4ccc(Cl)cc4)c4c(sc(C)c4C)-n4c(C)nnc43)c2C)-n2c(C)nnc21 [(6S+2S)-PEG1 (7)]	0.574		Kd [5]: 0.039 nM; Ki [6]: 0.13 nM; Ki [7]: 0.11 nM; Kd [8]: 0.066 nM; Ki [9]: 0.0027 nM; Ki [10]: 0.42 nM; Ki [11]: 0.29 nM
COC(=O)C[C@@H]1N=C(c2ccc(Cl)cc2)c2c(sc(C(=O)NCCOCCOCCNC(=O)C[C@@H]3N=C(c4ccc(Cl)cc4)c4c(sc(C)c4C)-n4c(C)nnc43)c2C)-n2c(C)nnc21 [(6S+2S)-PEG2 (8)]	1.84	1.28	Kd [4]: 0.0091 nM; Kd [3]: 0.014 nM
COC(=O)C[C@@H]1N=C(c2ccc(Cl)cc2)c2c(sc(C(=O)NCCOCCOCCOCCNC(=O)C[C@@H]3N=C(c4ccc(Cl)cc4)c4c(sc(C)c4C)-n4c(C)nnc43)c2C)-n2c(C)nnc21 [(6S+2S)-PEG3 (9)]	0.878	2.25	Kd [4]: 0.0075 nM; Kd [3]: 0.029 nM
COC(=O)C[C@@H]1N=C(c2ccc(Cl)cc2)c2c(sc(C(=O)NCCOCCOCCOCCOCCNC(=O)C[C@@H]3N=C(c4ccc(Cl)cc4)c4c(sc(C)c4C)-n4c(C)nnc43)c2C)-n2c(C)nnc21 [(6S+2S)-PEG4 (10)]	1.09	2.95	Kd [4]: 0.0066 nM; Kd [3]: 0.023 nM
COC(=O)C[C@@H]1N=C(c2ccc(Cl)cc2)c2c(sc(C(=O)NCCOCCOCCOCCOCCOCCOCCOCCNC(=O)C[C@@H]3N=C(c4ccc(Cl)cc4)c4c(sc(C)c4C)-n4c(C)nnc43)c2C)-n2c(C)nnc21 [(6S+2S)-PEG7 (11)]	1.59	0.789	Kd [4]: 0.0059 nM; Kd [3]: 0.026 nM
COc1cc2c(cc1-c1c(C)noc1C)ncc1c2n([C@H](C)c2ccccn2)c(=O)n1CC(=O)NCCNC(=O)Cn1c(=O)n([C@@H](C)c2ccccn2)c2c3cc(OC)c(-c4c(C)noc4C)cc3ncc21 [IBETx2-PEG0 (29)]	203	209	
COc1cc2c(cc1-c1c(C)noc1C)ncc1c2n([C@H](C)c2ccccn2)c(=O)n1CC(=O)NCCOCCNC(=O)Cn1c(=O)n([C@@H](C)c2ccccn2)c2c3cc(OC)c(-c4c(C)noc4C)cc3ncc21 [IBETx2-PEG1 (30)]	203	108	
COc1cc2c(cc1-c1c(C)noc1C)ncc1c2n([C@H](C)c2ccccn2)c(=O)n1CC(=O)NCCOCCOCCNC(=O)Cn1c(=O)n([C@@H](C)c2ccccn2)c2c3cc(OC)c(-c4c(C)noc4C)cc3ncc21 [IBETx2-PEG2 (31)]	123	117	
COc1cc2c(cc1-c1c(C)noc1C)ncc1c2n([C@H](C)c2ccccn2)c(=O)n1CC(=O)NCCOCCOCCOCCNC(=O)Cn1c(=O)n([C@@H](C)c2ccccn2)c2c3cc(OC)c(-c4c(C)noc4C)cc3ncc21 [IBETx2-PEG3 (32)]	64.6	53.4	
COc1cc2c(cc1-c1c(C)noc1C)ncc1c2n([C@H](C)c2ccccn2)c(=O)n1CC(=O)NCCOCCOCCOCCOCCNC(=O)Cn1c(=O)n([C@@H](C)c2ccccn2)c2c3cc(OC)c(-c4c(C)noc4C)cc3ncc21 [IBETx2-PEG4 (33)]	60.2	73.7	
COc1cc2c(cc1-c1c(C)noc1C)ncc1c2n([C@H](C)c2ccccn2)c(=O)n1CC(=O)NCCOCCOCCOCCOCCOCCOCCOCCNC(=O)Cn1c(=O)n([C@@H](C)c2ccccn2)c2c3cc(OC)c(-c4c(C)noc4C)cc3ncc21 [IBETx2-PEG7 (34)]	13.6	30.5	
Cc1sc2c(c1C)C(c1ccc(Cl)cc1)=NC(CC(=O)NCCOCCOCCOCCOCCOCCOCCOCCNC(=O)C[C@@H]1N=C(c3ccc(Cl)cc3)c3c(sc(C)c3C)-n3c(C)nnc31)c1nnc(C)n1-2 (stereo partly drawn) [MTI (35)]			Ki [12]: 0.024 nM; Ki [9]: 0.07 nM
